Experimental data taken from PMC11087525 (Scientific Reports, 2024).
Values after ≈ are worked out from the molar mass of the structure shown. Values joined by “and” are separate entries in the source; they are usually repeats but may differ in a detail not shown here. Equal entries are not always repeated. Where two headings read alike, the source gives them in different places.

Assays:
[1] = rats
[2] = test system: SARS-CoV-2 USA_WAI/2020 isolate
Excerpt: Therefore, the goal for the CSF was set to achieve the same exposure conditions as for plasma.

[3] = test system: SARS-CoV-2 USA_WAI/2020 isolate; conditions: cited from earlier work; for plasma EC90Adjusted concentration: adjusted for plasma protein binding
[4] = cited from earlier work
[5] = cited from earlier work; remark: listed apart in the source
[6] = cited from earlier work; remark: listed apart in the source
[7] = cited from earlier work; remark: listed apart in the source
[8] = set-up: method as in earlier work; conditions: cited from earlier work
in vivo [9] = conditions: male, Sprague-Dawley, rat; for Tmax: Average Tmax
in vivo [10] = conditions: male, Sprague-Dawley, rat, Median (IQR), rats
human neurons [11] = assay: In-vitro drug uptake by human neurons; conditions: for uptake of NMR by neurons (mean ± SD): 24-h incubation
pericytes [12] = assay: In-vitro drug uptake by human brain pericytes
[13] = test system: Human brain primary astrocytes; assay: In-vitro drug uptake by human brain primary astrocytes
human neurons [14] = test system: human neurons
pericytes [15] = conditions: human, 24 h, 1000 ng/mL
[16] = rats, oral 30 mg/kg NMR + 10 mg/kg RTV twice daily, 5 days
[17] = rats, oral NMR/RTV twice daily, 5 days
[18] = in the presence or absence of RTV
[19] = RTV alone, 1000 ng/mL, 24-h incubation

CC(C)(C)[C@H](NC(=O)C(F)(F)F)C(=O)N1C[C@H]2[C@@H]([C@H]1C(=O)N[C@H](C#N)C[C@@H]1CCNC1=O)C2(C)C [NMR, nirmatrelvir]
Cmax_0-5 days Plasma, Median (IQR) (all rats): 2240 (1860–4030) ng/mL | %CSF Concentrations ≥ 3xEC90Un_adjusted, Median (IQR) (all rats with CSF, 3xEC90 271.5 ng/mL unadjusted for protein binding): 16 (0 -20.5) % and 16% | Cmax_0-5 days Plasma, Geometric mean (Geometric SD factor) (excluding rat 7, calculated to compare to clinical data): 2480 ng/mL | CSF Cmax, median (rats): 410 ng/mL | % Penetration by Cmax CSF/Plasma, Median (IQR) (rats with CSF sampled): 18.11% | Cmax_0-5 days CSF, Median (IQR) (rats with CSF sampled): 410 (200–880) ng/mL | CL (NMR clearance), median from final model [16]: 0.23 L/h | Ka, median from final model [16]: 0.51 h⁻¹ | K23 (rate constant to CSF from central compartment), median [17]: 0.05 h⁻¹ | Vc (volume central compartment), median [17]: 1.05 L | Vcsf (volume cerebrospinal fluid compartment), median [17]: 3.46 L | Brain NMR concentration, Median (IQR) [1]: 23.83 (10.94-46.85) ng/g | Heart NMR concentration, Median (IQR) [1]: 61.72 (24.44-111.5) ng/g | Kidney NMR concentration, Median (IQR) [1]: 97.84 (43.28-297.3) ng/g | Liver NMR concentration, Median (IQR) [1]: 110 (35.65-419.5) ng/g | Lung NMR concentration, Median (IQR) [1]: 67.86 (25.01-111.3) ng/g | PBMC NMR concentration, Median (IQR) [1]: 61.44 (31.7-345.2) ng/mL | brain NMR concentrations compared to 3xEC90 ([1]; adjusted or unadjusted for protein binding): all < 3xEC90 regardless of adjustment for protein binding | 3xEC90 PD value for CSF [2]: 271.5 ng/mL | 3xEC90 PD value for plasma and tissue [2]: 876 ng/mL | 3xEC90 plasma protein adjusted in plasma [2]: 0.876 mg/L | 3xEC90 unadjusted in CSF [2]: 0.2715 mg/L | plasma EC90Adjusted concentration ([3]; bronchial epithelial cells infected with USA_WAI/2020 isolate): 0.292 µg/mL | plasma EC90Adjusted concentration [3]: 0.585 µM | EC90Un_adjusted ([3]; unadjusted for protein binding): 0.0905 µg/mL (≈ 0.181 µM) | EC90Un_adjusted for CSF ([3]; unadjusted for protein binding): 0.0905 µg/mL | lipophilicity coefficient (LogP) [4]: 1.68 | passive apparent permeability (Papp) [5]: 1.76 ×10⁻⁶ cm/s | participants with NMR trough concentrations ≥ 3 × EC90 ([6]; EPIC-HR, FDA review): 95% | NMR Ka reported by others [6]: 0.55 h⁻¹ | half-life for NMR in the presence of RTV in humans [6]: 6.05 h | healthy human geometric mean AUC0-12 h ([6]; healthy volunteers): 23010 ng·h/mL | healthy human geometric mean Cmax ([6]; healthy volunteers): 2210 ng/mL | NMR half-life in other oral rat PK studies ([7]; 10 mg/kg oral, rat): 4 h | F literature values estimated in rats for NMR [7]: 34–50% | Tmax in other rodent models, mean [7]: 1.5 h | protein bound [8]: 69% | Cmax (in vivo [9]): 2480 ng/mL | Kp (in vivo [9]; % Penetration by AUC CSF/Plasma, Median (IQR), rats with CSF sampled): 0.152 | Kp (in vivo [9]; % Penetration by Cmax CSF/Plasma, Median (IQR), rats with CSF sampled): 0.181 | k el (in vivo [9]; po, 30 mg/kg): 6.67e-05 s⁻¹ | AUC (in vivo [9]; po, 30 mg/kg, AUC0-endoftreatment CSF, Median (IQR), rats with CSF sampled): 17600 ng·h/mL | AUC (in vivo [9]; po, 30 mg/kg, AUC0-endoftreatment Plasma, Median (IQR), all rats): 114000 ng·h/mL | AUC (in vivo [9]; po, 30 mg/kg, AUC0-endoftreatment Plasma, Median (IQR), excluding rat 7): 128000 ng·h/mL | AUC (in vivo [9]; po, 30 mg/kg, AUCdaily_average CSF, Median (IQR), rats with CSF sampled): 3520 ng·h/mL | AUC (in vivo [9]; po, 30 mg/kg, AUCdaily_average Plasma, Geometric mean (Geometric SD factor), excluding rat 7, calculated to compare to clinical data): 20200 ng·h/mL | AUC (in vivo [9]; po, 30 mg/kg, AUCdaily_average Plasma, Median (IQR), all rats): 22800 ng·h/mL | AUC (in vivo [9]; po, 30 mg/kg, AUCdaily_average Plasma, Median (IQR), excluding rat 7): 25600 ng·h/mL | Tmax (in vivo [9]; po, 30 mg/kg, Mean (SD), all rats, calculated to compare to literature values): 1.84 h | Tmax (in vivo [9]; po, 30 mg/kg, Median (IQR), all rats): 1.68 h | half-life (in vivo [9]; po, 30 mg/kg, Half-life, Median (IQR), all rats, NMR in the presence of RTV): 2.55 h | Kp (in vivo [9]; po, NMR CSF concentrations as % of those in plasma, ratio of Cmax or AUC, oral NMR/RTV twice daily for five days): 0.15 to 0.18 | Kp (in vivo [10]; AR Brain): 0.15 | Kp (in vivo [10]; AR Kidney): 1.71 | Kp (in vivo [10]; AR Liver): 2.71 | Kp (in vivo [10]; AR Lung): 0.89 | Kp (in vivo [10]; AR PBMC): 0.998 | uptake of NMR by neurons (mean ± SD) (human neurons [11]; NMR alone, 2200 ng/mL): 34.7 ng/mL | uptake of NMR by neurons (mean ± SD) (human neurons [11]; in the presence of RTV (1000 ng/mL), NMR 2200 ng/mL): 122.8 ± 7.8 ng/mL | maximum NMR uptake (uptake/administered) (human neurons [11]; neurons in the presence of RTV, 2200 ng/mL administered): 5.5% | uptake of NMR by pericytes (pericytes [12]; [18]): < 2% | difference in NMR uptake, NMR alone or with RTV (pericytes [12]; pericytes): No significant differences | difference in NMR uptake, NMR alone or with RTV ([13]; astrocytes): No significant differences | uptake of NMR by astrocytes [13, 18]: < 2%

CC(C)c1nc(CN(C)C(=O)N[C@H](C(=O)N[C@@H](Cc2ccccc2)C[C@H](O)[C@H](Cc2ccccc2)NC(=O)OCc2cncs2)C(C)C)cs1 [RTV, ritonavir]
neuronal entry of RTV (human neurons [14]): moderate | uptake of RTV by pericytes (uptake/administered) (pericytes [15]): 20.2% | RTV uptake in pericytes (mean ± SD) (pericytes [12]; [19]): 202.6 ng/mL | RTV uptake in astrocytes (mean ± SD) [13, 19]: 419.7 ng/mL
